# Results as given in article PMC7930720, “Functional Expression of the Human Glucose Transporters GLUT2 and GLUT3 in Yeast Offers Novel Screening Systems for GLUT-Targeting Drugs” (Frontiers in Molecular Biosciences, 2021).
# Tests used:
# Type in all cases: cell-based
# GLUT2 [1] = target: T1, GLUT2 (Homo sapiens, UniProt P11168, A89S/DEL55-88/Q455R); assay: inhibition of […]-glucose ([…]) uptake in hxt0 EBY.S7 yeast expressing the transporter; growth assay
# T1 construct: gene SLC2A2
# T1 sequence (P11168 with tags, fused parts or gaps DEL55-88/A89S/Q455R): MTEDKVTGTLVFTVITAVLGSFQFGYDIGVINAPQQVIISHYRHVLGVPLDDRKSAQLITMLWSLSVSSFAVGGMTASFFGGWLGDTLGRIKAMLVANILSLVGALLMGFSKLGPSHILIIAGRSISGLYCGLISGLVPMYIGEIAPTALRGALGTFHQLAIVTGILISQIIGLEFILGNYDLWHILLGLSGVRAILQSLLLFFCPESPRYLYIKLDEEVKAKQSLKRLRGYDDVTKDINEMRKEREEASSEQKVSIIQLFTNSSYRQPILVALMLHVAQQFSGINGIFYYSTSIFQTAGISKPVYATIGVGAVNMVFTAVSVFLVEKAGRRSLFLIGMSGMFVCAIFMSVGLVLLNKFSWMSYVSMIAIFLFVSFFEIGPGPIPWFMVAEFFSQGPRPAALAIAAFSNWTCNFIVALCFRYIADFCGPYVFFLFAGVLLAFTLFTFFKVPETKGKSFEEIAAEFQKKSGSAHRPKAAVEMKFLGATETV
# GLUT3 [2] = target: T2, GLUT3 (Homo sapiens, UniProt P11169, S66Y); assay: as above
# T2 construct: gene SLC2A3; GLUT3S66Y
# T2 sequence (P11169 1-496 S66Y): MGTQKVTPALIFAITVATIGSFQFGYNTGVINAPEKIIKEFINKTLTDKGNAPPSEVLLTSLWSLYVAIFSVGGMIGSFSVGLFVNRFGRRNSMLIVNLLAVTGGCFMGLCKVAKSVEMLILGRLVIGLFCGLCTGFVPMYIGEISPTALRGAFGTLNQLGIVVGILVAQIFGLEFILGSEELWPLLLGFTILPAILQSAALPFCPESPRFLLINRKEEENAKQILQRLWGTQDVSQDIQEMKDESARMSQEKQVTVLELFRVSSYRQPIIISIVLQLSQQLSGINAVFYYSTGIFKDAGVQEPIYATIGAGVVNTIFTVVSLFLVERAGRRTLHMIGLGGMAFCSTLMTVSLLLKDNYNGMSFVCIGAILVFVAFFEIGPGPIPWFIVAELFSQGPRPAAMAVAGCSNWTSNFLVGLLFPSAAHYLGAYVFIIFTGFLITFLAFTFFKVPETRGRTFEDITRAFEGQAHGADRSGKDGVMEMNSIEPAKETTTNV
# GLUT2 [3] = target: T1, GLUT2; assay: inhibition of […]-glucose ([…]) uptake in hxt0 EBY.S7 yeast expressing the transporter
# GLUT3 [4] = target: T2, GLUT3; assay: as above
IC50 (GLUT2 [1]) [µM],IC50 (GLUT3 [2]) [µM],Compound,IC50 (GLUT2 [3]) [µM],IC50 (GLUT3 [4]) [µM]
1.07 ± 0.11,22.4 ± 1.8,O=C(CCc1ccc(O)cc1)c1c(O)cc(O)cc1O [phloretin],–,–
–,–,O=c1c(O)c(-c2ccc(O)c(O)c2)oc2cc(O)cc(O)c12 [quercetin],3.22 ± 0.45,11.6 ± 0.6
